The source of these data is patent US11479533B2, “Inhibitors of Rho associated coiled-coil containing protein kinase” (KADMON CORPORATION, LLC, priority 2017, dated 2022).

Structures are written as SMILES.

For assay [1], the system named is ppMlc (T18/S19) levels in A7R5 cells. The experiment in a line: A7R5 in-cell ELISA assay (ppMlc). Format: cell-based, rat. The note with it: Rattus norvegicus, A7R5, A7R5 cells, Table 2; read-out: pMLC IC50 (nM) A7R5. As to the method:
Determination of compounds ROCK inhibitory activity in A7R5 cells: rat aortic smooth muscle cell line A7R5 cells were maintained and treated in DMEM medium with 10% of fetal bovine serum. Cells were seeded with density of 5,000 cells/well in 96-well plates for 24 hours and subsequently treated 90 min with testing compounds. Cells were then fixed and processed according to the In-Cell ELISA Colorimetric Detection Kit manual (Thermo Scientific).
A7R5 cells were treated with 9 points 2 fold serial dilution of compounds and ppMlc (T18/S19) levels were determined in order to calculate the cellular IC50s of the compounds.
An A7R5 in-cell ELISA assay was performed to determine ROCK inhibition of test articles. A7R5 cells were treated with 9 points 2-fold serial dilution of compounds and ppMlc (T18/S19) levels were determined to calculate cellular IC50 values of the compounds. […] A7R5 cells were treated with 9 points 2-fold serial dilution of compounds and ppMlc (T18/S19) levels were determined to calculate cellular IC50 values of the compounds using the nonlinear regression curve fit function of the GraphPad Prism software.

The target in assay [2] is recombinant ROCK2 (amino acids 1-552) (Homo sapiens (Human), UniProt O75116). The experiment in a line: Z'-lyte kinase assay, ROCK2. Format: biochemical. As for the experimental part: Determination of compounds ROCK inhibitory activity in vitro (Z'lyte assay): recombinant ROCK1 (amino acids 1-535) and ROCK2 (amino acids 1-552) proteins were purchased from ThermoFisher Scientific. Compounds activities were measured by Z'-lyte kinase kit (ThermoFisher Scientific) and IC50s were calculated.
Sequence of recombinant ROCK2 (amino acids 1-552) (O75116 1-552): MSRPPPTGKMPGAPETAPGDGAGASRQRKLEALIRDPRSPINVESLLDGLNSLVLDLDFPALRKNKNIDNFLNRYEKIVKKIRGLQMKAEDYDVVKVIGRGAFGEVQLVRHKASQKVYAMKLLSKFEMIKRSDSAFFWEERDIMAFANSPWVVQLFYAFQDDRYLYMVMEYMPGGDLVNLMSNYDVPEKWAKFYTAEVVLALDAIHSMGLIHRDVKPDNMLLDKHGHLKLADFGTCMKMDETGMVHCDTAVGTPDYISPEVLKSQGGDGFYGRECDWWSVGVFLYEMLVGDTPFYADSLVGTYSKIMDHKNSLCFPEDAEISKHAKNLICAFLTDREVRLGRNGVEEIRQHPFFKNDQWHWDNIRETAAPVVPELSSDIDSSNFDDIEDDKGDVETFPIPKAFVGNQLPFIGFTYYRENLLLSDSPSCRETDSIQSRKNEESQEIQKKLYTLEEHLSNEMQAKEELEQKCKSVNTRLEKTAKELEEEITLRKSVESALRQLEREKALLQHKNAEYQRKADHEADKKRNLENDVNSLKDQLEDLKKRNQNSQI
Compounds activities were measured by Z'-lyte kinase kit (ThermoFisher Scientific). […] IC50s were calculated using the GraphPad Prism software with kinase activities data that were collected from 9 points serial dilution of compounds treatment. The ROCK inhibition in A7R5 cells and NIH3T3 (Acta2-Luc) cells was performed as described above.
The percent inhibition rate was calculated by normalizing the kinase activity value obtained with compound treatment against DMSO control value and then applied to the equation, […]. IC50's were calculated using the nonlinear regression curve fit function of the GraphPad Prism software with kinase activities data measured with 9 points 2-fold serial dilution of compounds treatment.

Assay [3] deals with ACTA2-promoter-driven-luciferase in NIH3T3 cells. The experiment in a line: NIH3T3 Acta2-promoter driven-luciferase assay. Type of assay: cell-based. The note with it: Mus musculus, plus TGFβ1, 24 hr, read-out: NIH3T3, Acta2-luc, IC50. As for the experimental part: NIH3T3 cells Acta2-promoter driven-luciferase assay: A NIH3T3 cell line stably expressing a luciferase reporter driven by the human ACTA2 gene promoter (−1000-1 bp) was established (NIH3T3-Acta2-luciferase). The cells were plated to confluence and treated with the test compounds plus TGFβ1 for 24 hr. Cells were then lysed and luciferase activity was measured using the LightSwitch luciferase kit from Active Motif.
ROCK inhibitors can be effectively rank ordered by ACTA2-promoter-driven-luciferase reporter cell assay. NIH3T3 cells stably expressing ACTA2-promoter-driven-luciferase were applied to measure ROCK compounds functional IC50's in cells. Cells were plated in 96 well plates to confluence and treated with 9 points serial dilution of compounds in combination with TGFβ1 for 24 hr. Luciferase activities were measured and compound's IC50's were calculated using the nonlinear regression curve fit function of the GraphPad Prism software. Compounds of the invention gave in cell IC50's under 200 nM, see FIG. 1c.

In general, IC50 refers to the concentration at which inhibition is half-maximal.

As for `CN[C@@H](C(=O)Nc1ccc(-c2cn[nH]c2)cc1)c1cccc(OC)c1` [Example 3, (R)—N-(4-(1H-pyrazol-4-yl)phenyl)-2-(3-methoxyphenyl)-2-(methylamino)acetamide], the figures for the half-maximal inhibitory concentration (IC50) in assay [1], in assay [2] and in assay [3] were 222 nM, 0.012 µM and 0.157 µM, respectively.

Take `CN[C@H](C(=O)Nc1ccc(-c2cn[nH]c2)cc1)c1cccc(OC)c1` [Example 4, (S)—N-(4-(1H-pyrazol-4-yl)phenyl)-2-(3-methoxyphenyl)-2-(methylamino)acetamide]: the results for the IC50 in assay [1], in assay [2] and in assay [3] were 108 nM, 0.003 µM and 0.11 µM, respectively.

Take `CNC(C(=O)Nc1ccc(-c2cn[nH]c2)cc1)c1ccc(OC)cc1` (stereo not drawn) [Example 9, N-(4-(1H-pyrazol-4-yl)phenyl)-2-(4-methoxyphenyl)-2-(methylamino)acetamide]: the IC50 in assay [1] turned out to be 355 nM; in assay [2], 0.0154 µM.

Turning to `CCNC(C(=O)Nc1ccc(-c2cn[nH]c2)cc1)c1ccc(OC)cc1` (stereo not drawn) [Example 10, N-(4-(1H-pyrazol-4-yl)phenyl)-2-(ethylamino)-2-(4-methoxyphenyl)acetamide], the results for the 50% inhibitory concentration (IC50) in assay [1], in assay [2] and in assay [3] were 255 nM, 0.021 µM and 1.28 µM, respectively.

On to `CCNC(C(=O)Nc1ccc(-c2cn[nH]c2)cc1)c1ccc(C)cc1` (stereo not drawn) [Example 11, N-(4-(1H-pyrazol-4-yl)phenyl)-2-(ethylamino)-2-(p-tolyl)acetamide], for which the IC50 amounted to 69 nM in assay [1], 0.004 µM in assay [2] and 0.106 µM in assay [3].

As for `CCNC(C(=O)Nc1ccc(-c2cn[nH]c2)cc1)c1ccc(F)cc1` (stereo not drawn) [Example 12, N-(4-(1H-pyrazol-4-yl)phenyl)-2-(ethylamino)-2-(4-fluorophenyl)acetamide], the IC50 was 458 nM in assay [1], 0.03 µM in assay [2] and 0.735 µM in assay [3].

For `CCNC(C(=O)Nc1ccc(-c2cn[nH]c2)cc1)c1cccc(OC)c1` (stereo not drawn) [Example 13, N-(4-(1H-pyrazol-4-yl)phenyl)-2-(ethylamino)-2-(3-methoxyphenyl)acetamide], the IC50 worked out at 425 nM in assay [1], 0.0063 µM in assay [2] and 1.57 µM in assay [3].

For `CNC(C(=O)Nc1ccc(-c2cn[nH]c2)cc1)c1cccc(C)c1` (stereo not drawn) [Example 14, N-(4-(1H-pyrazol-4-yl)phenyl)-2-(methylamino)-2-(m-tolyl)acetamide], the 50% inhibitory concentration (IC50) in assay [1] worked out at 353 nM; in assay [2], 0.0068 µM; in assay [3] it was 0.496 µM.

Consider `CCNC(C(=O)Nc1ccc(-c2cn[nH]c2)cc1)c1cccc(F)c1` (stereo not drawn) [Example 15, N-(4-(1H-pyrazol-4-yl)phenyl)-2-(ethylamino)-2-(3-fluorophenyl)acetamide], for which the IC50 in assay [1] was determined as 655 nM; in assay [2], 0.024 µM; in assay [3] it was 1.05 µM.

As to `CCNC(C(=O)Nc1ccc(-c2cn[nH]c2)cc1)c1cccc(Cl)c1` (stereo not drawn) [Example 16, N-(4-(1H-pyrazol-4-yl)phenyl)-2-(3-chlorophenyl)-2-(ethylamino)acetamide], the IC50 in assay [1] turned out to be 292 nM; in assay [2] it was 0.0035 µM; in assay [3], 0.376 µM.

On to `CNC(C(=O)Nc1ccc(-c2cn[nH]c2)cc1)c1ccc(C)cc1` (stereo not drawn) [Example 21, N-(4-(1H-pyrazol-4-yl)phenyl)-2-(methylamino)-2-(p-tolyl)acetamide], for which the IC50 in assay [1] came out at 47 nM; in assay [2], 0.0031 µM; in assay [3], 0.066 µM.

On to `CCNC(C(=O)Nc1ccc(-c2cn[nH]c2)cc1)c1ccc(Cl)cc1` (stereo not drawn) [Example 22, N-(4-(1H-pyrazol-4-yl)phenyl)-2-(4-chlorophenyl)-2-(ethylamino)acetamide], for which the 50% inhibitory concentration (IC50) was 169 nM in assay [1], 0.0089 µM in assay [2] and 0.155 µM in assay [3].

Turning to `CNC(C(=O)Nc1ccc(-c2cn[nH]c2)cc1)c1ccc(OC)c(F)c1` (stereo not drawn) [Example 23, N-(4-(1H-pyrazol-4-yl)phenyl)-2-(3-fluoro-4-methoxyphenyl)-2-(methylamino)acetamide], the values for the half-maximal inhibitory concentration (IC50) in assay [1] and in assay [3] were 435 nM and 0.252 µM, respectively. Moreover, in assay [2] (@ 0.5 μM, read-out: ROCK2 % inh (0.5 μM)), the inhibition at 0.5 µM worked out at 91%.

As for `COCCNC(C(=O)Nc1ccc(-c2cn[nH]c2)cc1)c1cccc(OC)c1` (stereo not drawn) [Example 25, N-(4-(1H-pyrazol-4-yl)phenyl)-2-((2-methoxyethyl)amino)-2-(3-methoxyphenyl)acetamide], the IC50 in assay [1] came to 692 nM; in assay [2] it was 0.094 µM; in assay [3], 0.663 µM.

Consider `CNCCNC(C(=O)Nc1ccc(-c2cn[nH]c2)cc1)c1cccc(OC)c1` (stereo not drawn) [Example 26, N-(4-(1H-pyrazol-4-yl)phenyl)-2-(3-methoxyphenyl)-2-((2-(methylamino)ethyl)amino)acetamide], for which the IC50 worked out at 152 nM in assay [1], 0.0053 µM in assay [2] and 0.251 µM in assay [3].

As to `CNC(C(=O)Nc1ccc(-c2cn[nH]c2)cc1)c1ccc2nc(C)sc2c1` (stereo not drawn) [Example 27, N-(4-(1H-pyrazol-4-yl)phenyl)-2-(methylamino)-2-(2-methylbenzo[d]thiazol-6-yl)acetamide], the IC50 in assay [1] stood at 1680 nM; in assay [2], 0.065 µM; in assay [3] it was 0.699 µM.

Turning to `CNC(C(=O)Nc1ccc(-c2cn[nH]c2)cc1)c1cccc(N(C)C)c1` (stereo not drawn) [Example 28, N-(4-(1H-pyrazol-4-yl)phenyl)-2-(3-(dimethylamino)phenyl)-2-(methylamino)acetamide], the IC50 in assay [1] stood at 947 nM; in assay [2], 0.082 µM; in assay [3], 0.335 µM.

For the compound `CNC(C(=O)Nc1ccc(-c2cn[nH]c2)cc1)c1ccnc(OC)c1` (stereo not drawn) [Example 29, N-(4-(1H-pyrazol-4-yl)phenyl)-2-(2-methoxypyridin-4-yl)-2-(methylamino)acetamide], the concentration for half-maximal inhibition (IC50) in assay [1] is 647 nM; in assay [2], 0.014 µM; in assay [3] it was 0.146 µM.

Consider `CNCCCNC(C(=O)Nc1ccc(-c2cn[nH]c2)cc1)c1cccc(OC)c1` (stereo not drawn) [Example 42, N-(4-(1H-pyrazol-4-yl)phenyl)-2-(3-methoxyphenyl)-2-((3-(methylamino)-propyl)amino)acetamide], for which the values for the half-inhibitory concentration (IC50) in assay [1] and in assay [2] were 359 nM and 0.0065 µM, respectively.

Turning to `COCC(C)(C)NC(C(=O)Nc1ccc(-c2cn[nH]c2)cc1)c1cccc(OC)c1` (stereo not drawn) [Example 43, N-(4-(1H-pyrazol-4-yl)phenyl)-2-((1-methoxy-2-methylpropan-2-yl)amino)-2-(3-methoxyphenyl)acetamide], the concentration for half-maximal inhibition (IC50) in assay [1] was found to be 1490 nM; in assay [2], 0.047 µM.

In the case of `COCCNC(C(=O)N(C)c1ccc(-c2cn[nH]c2)cc1)c1cccc(OC)c1` (stereo not drawn) [Example 49, N-(4-(1H-pyrazol-4-yl)phenyl)-2-((2-methoxyethyl)amino)-2-(3-methoxyphenyl)-N-methylacetamide], the IC50 in assay [2] was above 1 µM.

Turning to `CNC(C(=O)Nc1cc(F)c(-c2cn[nH]c2)cc1OCCCN(C)C)c1cccc(OC)c1` (stereo not drawn) [Example 70, N-(2-(3-(dimethylamino)propoxy)-5-fluoro-4-(1H-pyrazol-4-yl)phenyl)-2-(3-methoxyphenyl)-2-(methylamino)acetamide], the half-inhibitory concentration (IC50) in assay [1] stood at 134 nM; in assay [2], 0.0077 µM.

With `COc1cccc(C2C(=O)N(c3ccc(-c4cn[nH]c4)cc3)CCCN2CC2CC2)c1` (stereo not drawn) [Example 74, 1-(4-(1H-pyrazol-4-yl)phenyl)-4-(cyclopropylmethyl)-3-(3-methoxyphenyl)-1,4-diazepan-2-one], the IC50 in assay [2] was above 1 µM.

For `COc1cccc(C2C(=O)N(c3ccc(-c4cn[nH]c4)cc3)CCCN2CCN(C)C)c1` (stereo not drawn) [Example 75, 1-(4-(1H-pyrazol-4-yl)phenyl)-4-(2-(dimethylamino)ethyl)-3-(3-methoxyphenyl)-1,4-diazepan-2-one], the IC50 in assay [2] was above 1 µM.

In the case of `CNCCN1CCCN(c2ccc(-c3cn[nH]c3)cc2)C(=O)C1c1cccc(OC)c1` (stereo not drawn) [Example 76, 1-(4-(1H-pyrazol-4-yl)phenyl)-3-(3-methoxyphenyl)-4-(2-(methylamino)ethyl)-1,4-diazepan-2-one], the IC50 in assay [2] came out at 0.95 µM.
